The source of these data is the NIST ThermoML archive (doi:10.1021/je100143k).

As usually defined, the vapor or sublimation pressure is the equilibrium pressure above the liquid or solid.

Each structure is given as a SMILES string. Numbers after ± are expanded uncertainties.

The conditions of the data set: Liquid, Ebulliometric method (Recirculating still).

Consider `FC(F)C(F)F` [1,1,2,2-tetrafluoroethane], for which the “vapor or sublimation pressure” value runs as follows: (263.15 K) 155 ± 10 kPa; (268.15 K) 189 ± 10 kPa; (278.15 K) 276 ± 10 kPa; (288.15 K) 386 ± 10 kPa.

Regarding `CCF` [fluoroethane], the “vapor or sublimation pressure” value is 311 ± 10 kPa (263.15 K), 372 ± 10 kPa (268.15 K), 517 ± 10 kPa (278.15 K) and 700 ± 10 kPa (288.15 K).
